Experimental data reported in article PMC10925993, “6-Aryl-4-cycloamino-1,3,5-triazine-2-amines: synthesis, antileukemic activity, and 3D-QSAR modelling” (RSC Advances, 2024).
Read-outs that look alike come from different tables or passages of the source.

Legend:
Jurkat T cells = assay: Antiproliferative screening at 10 μM, MTS assay; type: cell-based, human; conditions: Homo sapiens, read-out: Cell viability (%)
Protocol: The Jurkat T cell line was chosen for its reliability as a model for chemotherapeutic studies, particularly in T-cell leukemia.[13]
An MTS (3-(4,5-dimethylthiazol-2-yl)-5-(3-carboxymethoxyphenyl)-2-(4-sulfophenyl)-2H-tetrazolium inner salt) assay[20] was used to assess the leukemic cell viability. […] A total of 2 × 10^3 cells per 100 μL cell culture media were seeded into each well of a 96-well plate and incubated for 24 h. Then, tested compounds or reference drugs [6-mercaptopurine (Merck Millipore, Germany), methotrexate (Merck Millipore, Germany) and cytarabine (Merck Millipore, Germany)] were added, followed by incubation for 72 h. […] The absorbance in each well was measured at 490 nm using a microplate reader (Tecan NanoQuant Infinite M200 Pro, Austria). The percentage of cell viability was estimated by comparing absorbance in wells with the treated and untreated (vehicle control) cells using the following formula: ODtreated/ODuntreated × 100%. All experiments were performed in triplicate and repeated in three independent experiments. The GI50 values were calculated using sigmoidal concentration-response curves generated by the GraphPad Prism 8 program.[21]

[1] = Jurkat T cells, 10 μM, 72 h after treatment, MTS, mean of three independent experiments

SMILES	viability at 10 µM (Jurkat T cells; [1]) [%]	melting point [°C]	viability at 10 µM (Jurkat T cells; Jurkat, 72 h) [%]
Nc1nc(-c2ccccc2)nc(N2CCCC2)n1 [9{1,1}]	100		
Nc1nc(-c2cccc(F)c2)nc(N2CCCC2)n1 [9{1,2}, 6-(3-Fluorophenyl)-4-pyrrolidino-1,3,5-triazine-2-amine]	100	182 to 183	
Nc1nc(-c2ccc(F)cc2)nc(N2CCCC2)n1 [9{1,3}, 6-(4-Fluorophenyl)-4-pyrrolidino-1,3,5-triazine-2-amine]	97	202 to 203	
Cc1cccc(-c2nc(N)nc(N3CCCC3)n2)c1 [9{1,5}, 6-(3-Methylphenyl)-4-pyrrolidino-1,3,5-triazine-2-amine]	82	185 to 186	
Cc1ccc(-c2nc(N)nc(N3CCCC3)n2)cc1 [9{1,6}, 6-(4-Methylphenyl)-4-pyrrolidino-1,3,5-triazine-2-amine]	100	229 to 230	
CC(C)(C)c1ccc(-c2nc(N)nc(N3CCCC3)n2)cc1 [9{1,7}, 6-[4-(tert-Butyl)phenyl]-4-pyrrolidino-1,3,5-triazine-2-amine]	88	196 to 197	
COc1ccc(-c2nc(N)nc(N3CCCC3)n2)cc1 [9{1,9}, 6-(4-Methoxyphenyl)-4-pyrrolidino-1,3,5-triazine-2-amine]	100	208 to 209	
Nc1nc(-c2cccc([N+](=O)[O-])c2)nc(N2CCCC2)n1 [9{1,10}, 6-(3-Nitrophenyl)-4-pyrrolidino-1,3,5-triazine-2-amine]	94	207 to 208	
Nc1nc(-c2ccc(C(F)(F)F)cc2)nc(N2CCCC2)n1 [9{1,11}, 6-[4-(Trifluoromethyl)phenyl]-4-pyrrolidino-1,3,5-triazine-2-amine]	78	186 to 187	
Nc1nc(-c2ccc(OC(F)(F)F)cc2)nc(N2CCCC2)n1 [9{1,12}, 6-[4-(Trifluoromethoxy)phenyl]-4-pyrrolidino-1,3,5-triazine-2-amine]	96	149 to 150	
Nc1nc(-c2cccc(Oc3ccccc3)c2)nc(N2CCCC2)n1 [9{1,13}, 6-(3-Phenoxyphenyl)-4-pyrrolidino-1,3,5-triazine-2-amine]	87	170 to 171	
Nc1nc(-c2ccc(OCc3ccccc3)cc2)nc(N2CCCC2)n1 [9{1,15}, 6-[4-(Benzyloxy)phenyl]-4-pyrrolidino-1,3,5-triazine-2-amine]	94	201 to 202	
COc1ccc(-c2nc(N)nc(N3CCCC3)n2)cc1OC [9{1,16}, 6-(3,4-Dimethoxyphenyl)-4-pyrrolidino-1,3,5-triazine-2-amine]	95	217 to 218	
COc1cc(-c2nc(N)nc(N3CCCC3)n2)cc(OC)c1OC [9{1,17}, 6-(3,4,5-Trimethoxyphenyl)-4-pyrrolidino-1,3,5-triazine-2-amine]	98	213 to 214	
Nc1nc(-c2cccs2)nc(N2CCCC2)n1 [9{1,18}, 4-Pyrrolidino-6-(2-thienyl)-1,3,5-triazine-2-amine]	100	210 to 211	
Nc1nc(-c2ccccc2)nc(N2CCCCC2)n1 [9{2,1}]	100		
Nc1nc(-c2cccc(F)c2)nc(N2CCCCC2)n1 [9{2,2}, 6-(3-Fluorophenyl)-4-piperidino-1,3,5-triazine-2-amine]	62	138 to 139	
Nc1nc(-c2ccc(F)cc2)nc(N2CCCCC2)n1 [9{2,3}, 6-(4-Fluorophenyl)-4-piperidino-1,3,5-triazine-2-amine]	98	156 to 157	
Nc1nc(-c2ccc(Cl)cc2)nc(N2CCCCC2)n1 [9{2,4}, 6-(4-Chlorophenyl)-4-piperidino-1,3,5-triazine-2-amine]	83	177 to 178	
Cc1ccc(-c2nc(N)nc(N3CCCCC3)n2)cc1 [9{2,6}, 6-(4-Methylphenyl)-4-piperidino-1,3,5-triazine-2-amine]	100		
COc1ccc(-c2nc(N)nc(N3CCCCC3)n2)cc1 [9{2,9}, 6-(4-Methoxyphenyl)-4-piperidino-1,3,5-triazine-2-amine]	100	178 to 179	
Nc1nc(-c2cccc([N+](=O)[O-])c2)nc(N2CCCCC2)n1 [9{2,10}, 6-(3-Nitrophenyl)-4-piperidino-1,3,5-triazine-2-amine]	100	158 to 159	
CC1CCN(c2nc(N)nc(-c3ccccc3)n2)CC1 [9{3,1}]	100		
CC1CCN(c2nc(N)nc(-c3cccc(F)c3)n2)CC1 [9{3,2}, 6-(3-Fluorophenyl)-4-(4-methylpiperidino)-1,3,5-triazine-2-amine]	61	125 to 126	
CC1CCN(c2nc(N)nc(-c3ccc(F)cc3)n2)CC1 [9{3,3}, 6-(4-Fluorophenyl)-4-(4-methylpiperidino)-1,3,5-triazine-2-amine]	86	> 300	
CC1CCN(c2nc(N)nc(-c3ccc(Cl)cc3)n2)CC1 [9{3,4}, 6-(4-Chlorophenyl)-4-(4-methylpiperidino)-1,3,5-triazine-2-amine]	79	168 to 169	

SMILES	viability at 10 µM (Jurkat T cells; [1]) [%]	melting point [°C]	viability at 10 µM (Jurkat T cells; Jurkat, 72 h) [%]
Cc1ccc(-c2nc(N)nc(N3CCC(C)CC3)n2)cc1 [9{3,6}, 6-(4-Methylphenyl)-4-(4-methylpiperidino)-1,3,5-triazine-2-amine]	100	> 300	
CC1CCN(c2nc(N)nc(-c3ccc(N(C)C)cc3)n2)CC1 [9{3,8}, 6-[4-(N,N-Dimethylamino)phenyl]-4-(4-methylpiperidino)-1,3,5-triazine-2-amine]	84	212 to 213	
COc1ccc(-c2nc(N)nc(N3CCC(C)CC3)n2)cc1 [9{3,9}, 6-(4-Methoxyphenyl)-4-(4-methylpiperidino)-1,3,5-triazine-2-amine]	100	172 to 173	
CC1CCN(c2nc(N)nc(-c3cccc([N+](=O)[O-])c3)n2)CC1 [9{3,10}, 4-(4-Methylpiperidino)-6-(3-nitrophenyl)-1,3,5-triazine-2-amine]	84	153 to 154	
COc1cc(-c2nc(N)nc(N3CCC(C)CC3)n2)cc(OC)c1OC [9{3,17}, 6-(3,4,5-Trimethoxyphenyl)-4-(4-methylpiperidino)-1,3,5-triazine-2-amine]	95		
CN1CCN(c2nc(N)nc(-c3ccccc3)n2)CC1 [9{4,1}]	100		
CN1CCN(c2nc(N)nc(-c3cccc(F)c3)n2)CC1 [9{4,2}, 6-(3-Fluorophenyl)-4-(4-methylpiperazino)-1,3,5-triazine-2-amine]	95	187 to 188	
CN1CCN(c2nc(N)nc(-c3ccc(F)cc3)n2)CC1 [9{4,3}, 6-(4-Fluorophenyl)-4-(4-methylpiperazino)-1,3,5-triazine-2-amine]	100	192 to 193	
CN1CCN(c2nc(N)nc(-c3ccc(Cl)cc3)n2)CC1 [9{4,4}, 6-(4-Chlorophenyl)-4-(4-methylpiperazino)-1,3,5-triazine-2-amine]			100
Cc1cccc(-c2nc(N)nc(N3CCN(C)CC3)n2)c1 [9{4,5}, 6-(3-Methylphenyl)-4-(4-methylpiperazino)-1,3,5-triazine-2-amine]	95	194 to 195	
Nc1nc(-c2ccccc2)nc(N2CCOCC2)n1 [9{5,1}]	98		
Nc1nc(-c2cccc(F)c2)nc(N2CCOCC2)n1 [9{5,2}]	100		
Nc1nc(-c2ccc(F)cc2)nc(N2CCOCC2)n1 [9{5,3}]	100		
Nc1nc(-c2ccc(Cl)cc2)nc(N2CCOCC2)n1 [9{5,4}]	100		
Cc1cccc(-c2nc(N)nc(N3CCOCC3)n2)c1 [9{5,5}]	100		
Cc1ccc(-c2nc(N)nc(N3CCOCC3)n2)cc1 [9{5,6}]	100		
CC(C)(C)c1ccc(-c2nc(N)nc(N3CCOCC3)n2)cc1 [9{5,7}]	60		
CN(C)c1ccc(-c2nc(N)nc(N3CCOCC3)n2)cc1 [9{5,8}]	100		
COc1ccc(-c2nc(N)nc(N3CCOCC3)n2)cc1 [9{5,9}]	100		
Nc1nc(-c2ccc(OC(F)(F)F)cc2)nc(N2CCOCC2)n1 [9{5,12}]	100		
Nc1nc(-c2cccc(Oc3ccccc3)c2)nc(N2CCOCC2)n1 [9{5,13}]	78		
Nc1nc(-c2cccc(OCc3ccccc3)c2)nc(N2CCOCC2)n1 [9{5,14}]	63		
Nc1nc(-c2ccc(OCc3ccccc3)cc2)nc(N2CCOCC2)n1 [9{5,15}]	94		
COc1ccc(-c2nc(N)nc(N3CCOCC3)n2)cc1OC [9{5,16}]	100		
COc1cc(-c2nc(N)nc(N3CCOCC3)n2)cc(OC)c1OC [9{5,17}]	100		
Nc1nc(-c2cccs2)nc(N2CCOCC2)n1 [9{5,18}]	77		
